# Assay results from ChEMBL document CHEMBL1135759, “Exploring the role of bromine at C(10) of (+)-4-[2-[4-(8-chloro-3,10-dibromo- 6,11-dihydro-5H-benzo[5,6]cyclohepta[1,2-b]pyridin-11(R)-yl)-1-piperidinyl]-2- oxoethyl]-1-piperidinecarboxamide (Sch-66336): the discovery of indolocycloheptapyridine inhibitors of farnesyl protein transferase” (J Med Chem, 2002).
# Target: Protein farnesyltransferase (Homo sapiens, UniProt P49354+P49356)
# Experiment: Inhibition of Protein farnesyltransferase in an enzyme assay with His6-H-Ras-CVLS
row,SMILES,IC50 [nM]
1,O=C(Cc1cc[n+]([O-])cc1)N1CCC([C@@H]2c3ccc(Cl)cc3CCc3cc(Br)cnc32)CC1,34
2,"Cc1cn(C)c2c(Cl)cc3c(c12)C(C1CCN(C(=O)Cc2cc[n+]([O-])cc2)CC1)c1ncccc1CC3 (single isomer, unassigned; (+))",> 190
3,"O=C(Cc1cc[n+]([O-])cc1)N1CCC(C2c3ncccc3CCc3cc(Cl)c4[nH]ccc4c32)CC1 (single isomer, unassigned; (+))",42
4,CCCc1c[nH]c2c(Cl)cc3c(c12)[C@@H](C1CCN(C(=O)Cc2cc[n+]([O-])cc2)CC1)c1ncccc1CC3 (stereo in doubt; (+)-10b),65
5,CCCCc1c[nH]c2c(Cl)cc3c(c12)[C@@H](C1CCN(C(=O)Cc2cc[n+]([O-])cc2)CC1)c1ncccc1CC3 (stereo in doubt; (+)-10c),69
6,CCCc1c[nH]c2c(Cl)cc3c(c12)[C@@H](C1CCN(C(=O)Cc2cc[n+]([O-])cc2)CC1)c1ncccc1CC3 (stereo in doubt; (-)-10b),> 190
7,CCCCc1c[nH]c2c(Cl)cc3c(c12)[C@@H](C1CCN(C(=O)Cc2cc[n+]([O-])cc2)CC1)c1ncccc1CC3 (stereo in doubt; (-)-10c),> 180

# Stronger by IC50, values ahead:
row,IC50 [nM],SMILES
1,2.6,Cc1c[nH]c2c(Cl)cc3c(c12)[C@@H](C1CCN(C(=O)Cc2cc[n+]([O-])cc2)CC1)c1ncc(Br)cc1CC3
2,19,O=C(Cc1cc[n+]([O-])cc1)N1CCC([C@H]2c3ncccc3CCc3cc(Cl)cc(Br)c32)CC1
3,7.4,Cc1c[nH]c2c(Cl)cc3c(c12)[C@@H](C1CCN(C(=O)Cc2cc[n+]([O-])cc2)CC1)c1ncccc1CC3 (stereo in doubt; (+)-10a)
4,28,Cc1c[nH]c2c(Cl)cc3c(c12)[C@@H](C1CCN(C(=O)Cc2cc[n+]([O-])cc2)CC1)c1ncccc1CC3 (stereo in doubt; (-)-10a)
